According to patent US8343509B2, “Methods and compositions for detection of bacteria and treatment of diseases and disorders” (priority 2008, dated 2013):
Where two headings read alike, the source gives them in different places.

Key:
[1] = test system: Escherichia coli Nissle 1917 (EcN); assay: In vitro tracer uptake into E. coli Nissle culture (gamma counter); type: cell-based; conditions: 0.925 MBq tracer, culture grown at 37° C. for 4 hours
Experimental: An overnight culture of EcN was diluted 1:50 into 5 ml fresh LB-broth, supplemented with 0.925 MBq (25 μCi) of [^18F]-FDG or [^18F]-FEAU. The cultures were grown at 37° C. for 4 hours. The bacteria were harvested by centrifugation, washed twice with PBS and the radioactivity in the pelleted bacteria and medium was measured in a gamma counter (Packard, United Technologies, Downers Grove, Ill.).

E. coli Nissle [2] = conditions: for tumor-to-organ ratio, heart / tumor-to-organ ratio, liver / tumor-to-organ ratio, muscle: PET
Experimental: The in vivo uptake of [^18F]-FDG and [^18F]-FEAU by administered EcN bacteria was studied using a mouse tumor model and imaged by positron emission tomography (PET) scanning.
At two weeks post tumor cell implantation (tumor diameter >5 mm), the EcN bacteria (4×10^6 CFU in 100 μl PBS) were administered systemically by lateral tail vein injection into the tumor bearing mice. Control mice were injected with 100 μl PBS via tail vein.
Prior to tracer administration, [^18F]-FDG or [^18F]-FEAU, the animals were starved 12 h and kept under anesthesia between tracer injection and imaging. In the [^18F]-FDG experimental group of mice (n=6 for each time point), each animal was injected intravenously by tail vein with 9.25 MBq (250 μCi) of [^18F]-FDG at either 16 or 72 hours after administration of EcN. Control mice received 9.25 MBq (250 μCi) of [^18F]-FDG following administration of PBS. [^18F]-FDG FDG PET scanning was performed 1 h after tracer administration using a 10 minute list mode acquisition.
In the [^18F]-FEAU experimental group of mice (n=8 for each time point), each animal was injected intravenously by tail vein with 9.25 MBq (250 μCi) of [^18F]-FEAU at either 16 or 72 hours after administration of EcN. Control mice received 9.25 MBq (250 μCi) of [^18F]-FEAU following administration of 100 μl PBS. [^18F]-FDG PET scanning was performed 2 h after tracer administration using a 10 minute list mode acquisition.
Imaging was performed using a Focus 120 microPET™ dedicated small-animal PET scanner (Concorde Microsystems Inc, Knoxyille, Tenn.). Mice were maintained under 2% isofluorane anesthesia with an oxygen flow rate of 2 l/min during the entire scanning period. Three-dimensional (3D) list-mode data were acquired using an energy window of 350-700 keV for ^18F and 410-580 keV for ^124I, respectively and a coincidence timing window of 6 ns. […] Transverse images were reconstructed by filtered back-projection using a ramp filter with a cut-off frequency equal to the Nyquist frequency in a 128×128×94matrix comprised of 0.866×0.866×0.866-mm voxels. The image data were corrected for (a) non-uniformity of scanner response using a uniform cylinder source-based normalization, (b) dead time count losses using a singles count rate-based global correction, (c) physical decay to the time of injection, and (d) the ^124I branching ratio. There was no correction applied for attenuation, scatter or partial-volume averaging. The count rates in the reconstructed images were converted to activity concentration (% of injected dose per gram of tissue, % ID/g) using a system calibration factor (μCi/ml/cps/voxel) derived from imaging of a rat-size phantom filled with a uniform aqueous solution of ^18F.
PET image analysis was performed using ASIPro™ software (Concorde Microsystems Inc., Knoxyille, Tenn.). For each PET scan, regions of interest (ROIs) were manually drawn over tumor, liver, skeletal muscle and heart.

E. coli Nissle [3] = assay: [18F]-FEAU uptake by tissue sampling, tumor-to-organ radioactivity ratios; type: in vivo, mice; conditions: after EcN administration, p<0.02
Experimental: In vivo uptake of [^18F]-FEAU was measured in a separate experiment by measurement of tumor-to-organ (liver, spleen, heart and lung) [^18F]-FEAU radioactivity ratios via tissue sampling. […] Euthanized mice were rinsed with 100% ethanol prior to tissue removal. Organs, including liver, lung, spleen and heart, were sampled and weighed before radioactivity was measured. Tumor tissue was weighed and homogenized in 1 ml PBS. Serial dilutions of the homogenized sample were plated on L-arabinose containing LB-agar plates. […] The remaining tumor suspension and organ samples were assayed for radioactivity in a gamma counter (Packard, United Technologies, Downers Grove, Ill.). [^18F]-FEAU radioactivity (% ID/g) in the samples was determined and tumor-to-organ ratios calculated. To assess the correlation between radioactivity and scintillation counter measurements, the Pearson correlation coefficient was computed.

E. coli Nissle [4] = conditions: in the absence of bacteria
Excerpt: Using the data obtained in Example 2 for in vivo [^18F]-FEAU uptake, tumor radioactivity (% ID/g), corrected for background radioactivity, was plotted against the number of bacterial colony forming units per gram for each of the tumors imaged.

E. coli Nissle [5] = assay: In vivo [124I]-FIAU PET distribution over time in 4T1 xenograft mice
Experimental: Mice bearing 4T1 xenografts were generated as described in Example 2. Prior to intravenous administration of ^[124I]-FIAU, three mice were injected with EcN-bacteria and 3 mice with PBS (control). 37 MBq (1000 μCi) of [^124I]-FIAU was injected into each animal intravenously 72 h after bacterial injection. Potassium iodide was used to block the uptake of radioactive iodine by the thyroid. Imaging of [^124I]-FIAU uptake by PET was obtained 4, 8, 12, 24, 48 and 72 h after tracer administration with 10 minute list acquisition at the 4 h and 8 h imaging time points, 15 minute at the 12 h time point, 30 minute at 24 h time point and 60 minute at the 48 h and 72 h time points. After tracer administration and between imaging time points, the animals were allowed to awake and maintain normal husbandry.

[6] = 4T1 tumors, without/prior to EcN injection
[7] = tracer 16 h after EcN injection
[8] = tracer 72 h after EcN injection

Compound: OC[C@H]1OC(O)[C@H]([18F])[C@@H](O)[C@@H]1O (stereo partly drawn) [[^18F]-FDG, 2′-[^18F]fluoro-2′deoxy-D-glucose]
- enrichment of radioactivity within EcN-bacteria compared to the remaining LB-broth [1]: 120 fold
- enhancement of the tracer signal (tumor-to-organ ratios post-EcN vs pre-EcN) (E. coli Nissle [2]; 16 h after EcN injection): ~1.7 fold
- enhancement of the tracer signal (tumor-to-organ ratios post-EcN vs pre-EcN) (E. coli Nissle [2]; 72 h after EcN injection): ~1.4 fold
- tumor-to-organ ratio, heart (E. coli Nissle [2]; [6]): 0.23±0.12
- tumor-to-organ ratio, liver (E. coli Nissle [2]; [6]): 1.6±0.4
- tumor-to-organ ratio, muscle (E. coli Nissle [2]; [6]): 3.3±0.7
- tumor-to-organ ratio, heart (E. coli Nissle [2]; [7]): 0.31±0.8
- tumor-to-organ ratio, liver (E. coli Nissle [2]; [7]): 2.6±0.5
- tumor-to-organ ratio, muscle (E. coli Nissle [2]; [7]): 5.4±1.1
- tumor-to-organ ratio, heart (E. coli Nissle [2]; [8]): 0.31±0.17
- tumor-to-organ ratio, liver (E. coli Nissle [2]; [8]): 2.2±0.8
- tumor-to-organ ratio, muscle (E. coli Nissle [2]; [8]): 4.3±1.2

Compound: CCc1cn([C@@H]2O[C@H](CO)[C@@H](O)[C@@H]2[18F])c(=O)[nH]c1=O [[^18F]-FEAU, 2′-[^18F]fluoro-2′deoxy-1-β-D-arabinofuranosyl-5-ethyl-uracil]
- enrichment of radioactivity within EcN-bacteria compared to the remaining LB-broth [1]: 6.5 fold
- tumor to organ ratio (liver, spleen, heart, lung) by tissue sampling (E. coli Nissle [3]): increased significantly
- enhancement of the tracer signal (tumor-to-organ ratios post-EcN vs pre-EcN) (E. coli Nissle [2]; 16 h after EcN injection): ~1.6 fold
- enhancement of the tracer signal (tumor-to-organ ratios post-EcN vs pre-EcN) (E. coli Nissle [2]; 72 h after EcN injection): ~2.1 fold
- tumor-to-organ ratio, heart (E. coli Nissle [2]; [6]): 1.4±0.3
- tumor-to-organ ratio, liver (E. coli Nissle [2]; [6]): 1.4±0.3
- tumor-to-organ ratio, muscle (E. coli Nissle [2]; [6]): 1.7±0.4
- tumor-to-organ ratio, heart (E. coli Nissle [2]; [7]): 2.1±0.6
- tumor-to-organ ratio, liver (E. coli Nissle [2]; [7]): 2.0±0.7
- tumor-to-organ ratio, muscle (E. coli Nissle [2]; [7]): 2.6±0.8
- tumor-to-organ ratio, heart (E. coli Nissle [2]; [8]): 2.9±0.8
- tumor-to-organ ratio, liver (E. coli Nissle [2]; [8]): 2.4±0.8
- tumor-to-organ ratio, muscle (E. coli Nissle [2]; [8]): 3.0±1.3
- uptake in tumors (E. coli Nissle [2]; in the absence of EcN injection): much lower than that of [^18F]-FDG
- accumulation in 4T1 xenografts (E. coli Nissle [4]): near background levels

Compound: O=c1[nH]c(=O)n([C@@H]2O[C@H](CO)[C@@H](O)[C@@H]2F)cc1I [[^124I]-FIAU, 5-iodo-2′-fluoro-2′deoxy-1-β-D-arabino-furanosyl-uracil]
- background radioactivity in PET images (E. coli Nissle [5]; 4 and 8 h acquisition time points): very high background radioactivity
- tumor/background ratios (E. coli Nissle [5]; 48 and 72 h after tracer, EcN-treated animals): greater than 5
- enrichment in the bacteria-treated tumors versus control tumors (E. coli Nissle [5]; tracer 72 h after bacterial injection): 2.5 fold
- accumulation in 4T1 xenografts (E. coli Nissle [4]): low levels above background
